In patent publication US11422132B2, “Peptides and uses thereof for diagnosing and treating myasthenia gravis” (The Regents of the University of California, priority 2016, dated 2022):

System: mAb 334
Experiment: Western blot of peptide-IChBD fusion proteins probed with mAb 334
Format: binding, rat
Details: FIG. 5 Western blots, Torpedo 39MIR single mutants
Description: (§1) Chitin beads adsorbed with peptide-IChBD fusion proteins were run on an SDS-PAGE gel and transferred to a nitrocellulose membrane and assayed with the five mAbs.
(§2) To explore the effects of individual amino acid substitutions between the Torpedo and the human AChR MIR mimics, eight peptides were prepared, each with an amino acid substituted from the human sequence into the Torpedo sequence. The single amino acid substitutions in the Torpedo MIR were: N10K (SEQ ID NO:11), L12F (SEQ ID NO:12), R66K (SEQ ID NO:13), A70D (SEQ ID NO:14), I75V (SEQ ID NO:15), R79H (SEQ ID NO:16), D111Q (SEQ ID NO:17), and K115H (SEQ ID NO:18).

| Sequence | mAb 334 binding relative to Torpedo 39MIR |
| --- | --- |
| SEHETRLVANLLGGGSLRWNPADYGGVKKIRGSLDYTGK (synthetic main immunogenic region (MIR) peptide) [Mutant I75V, Torpedo 39MIR single mutant (I75V)] | 0.03 × |
| SEHETRLVANLLGGGSLRWNPDDYGGIKKIRGSLDYTGK (synthetic main immunogenic region (MIR) peptide) [Mutant A70D, Torpedo 39MIR single mutant (A70D)] | 1.04 × |

Same assay, conditions: Table 1, Western blot of FIG. 5, Torpedo 39MIR single mutants

| Sequence | mAb 334, fold-change in binding relative to Torpedo 39MIR |
| --- | --- |
| SEHETRLVANLLGGGSLRWNPADYGGVKKIRGSLDYTGK (synthetic main immunogenic region (MIR) peptide) [Mutant I75V, Torpedo 39MIR single mutant (I75V)] | 0.03 fold-change |
| SEHETRLVANLLGGGSLRWNPDDYGGIKKIRGSLDYTGK (synthetic main immunogenic region (MIR) peptide) [Mutant A70D, Torpedo 39MIR single mutant (A70D)] | 1.04 fold-change |

System: mAb 35
Experiment: Western blot of peptide-IChBD fusion proteins probed with mAb 35
Format: binding, rat
Set-up: key to mAb 35, fold-change in binding relative to Torpedo 39MIR: ‘—’ denotes no binding
Details: FIG. 5 Western blots, Torpedo 39MIR single mutants
Description: (§3) Chitin beads adsorbed with peptide-IChBD fusion proteins were run on an SDS-PAGE gel and transferred to a nitrocellulose membrane and assayed with the four mAbs.
as §1, §2

| Sequence | mAb 35 binding relative to binding to the Torpedo 39MIR |
| --- | --- |
| SEHETRLVANLLGGGSLRWNPDDYGGIKKIRGSLDYTGK (synthetic main immunogenic region (MIR) peptide) [Mutant A70D, Torpedo 39MIR single mutant (A70D)] | 0.93 × |

Same assay, conditions: Table 1, Western blot of FIG. 5, Torpedo 39MIR single mutants

| Sequence | mAb 35, fold-change in binding relative to Torpedo 39MIR |
| --- | --- |
| SEHETRLVANLLGGGSLRWNPADYGGVKKIRGSLDYTGK (synthetic main immunogenic region (MIR) peptide) [Mutant I75V, Torpedo 39MIR single mutant (I75V)] | — |
| SEHETRLVANLLGGGSLRWNPDDYGGIKKIRGSLDYTGK (synthetic main immunogenic region (MIR) peptide) [Mutant A70D, Torpedo 39MIR single mutant (A70D)] | 0.93 fold-change |

Same assay, conditions: Western blot

| Sequence | mAb 35 binding, result in words |
| --- | --- |
| SEHETRLVAKLFGGGSLKWNPADYGGVKKIHGSLQYTGH (synthetic main immunogenic region (MIR) peptide) [Mutant D70A, Human 39MIR single mutant (D70A)] | failed to restore mAb 35 binding |
| SEHETRLVAKLFGGGSLKWNPDDYGGIKKIHGSLQYTGH (synthetic main immunogenic region (MIR) peptide) [Mutant V75I, Human 39MIR single mutant (V75I)] | restored mAb 35 binding |
| SEHETRLVAKLFGGGSLKWNPDDYGGVKKIHGSLDYTGH [Q111D] (synthetic main immunogenic region (MIR) peptide) [Mutant Q111D, Human 39MIR single mutant (Q111D)] | restored mAb 35 binding |
| SEHETRLVAKLFGGGSLKWNPDDYGGVKKIHGSLDYTGH [rat 39 MIR] (synthetic main immunogenic region (MIR) peptide) [Mouse 39MIR; rat/mouse 39MIR homolog] | did not bind |
| SEHETRLVANLFGGGSLKWNPDDYGGVKKIHGSLQYTGH (synthetic main immunogenic region (MIR) peptide) [Mutant K10N, Human 39MIR single mutant (K10N)] | restored mAb 35 binding |
| SEHETRLVANLLGGGSLRWNPADYGGVKKIRGSLDYTGK (synthetic main immunogenic region (MIR) peptide) [Mutant I75V, Torpedo 39MIR single mutant (I75V)] | did not bind |

System: mAb 132A
Experiment: Western blot of peptide-IChBD fusion proteins probed with mAb 132A
Format: binding, rat
Set-up: key to mAb 132A, fold-change in binding relative to Torpedo 39MIR: ‘—’ denotes no binding
Details: Table 3, single-substitution human 39MIR mutants

| Sequence | mAb 132A, fold-change in binding relative to Torpedo 39MIR |
| --- | --- |
| SEHETRLVAKLFGGGSLKWNPADYGGVKKIHGSLQYTGH (synthetic main immunogenic region (MIR) peptide) [Mutant D70A, Human 39MIR single mutant (D70A)] | — |
| SEHETRLVAKLFGGGSLKWNPDDYGGIKKIHGSLQYTGH (synthetic main immunogenic region (MIR) peptide) [Mutant V75I, Human 39MIR single mutant (V75I)] | — |
| SEHETRLVAKLFGGGSLKWNPDDYGGVKKIHGSLDYTGH [Q111D] (synthetic main immunogenic region (MIR) peptide) [Mutant Q111D, Human 39MIR single mutant (Q111D)] | — |
| SEHETRLVANLFGGGSLKWNPDDYGGVKKIHGSLQYTGH (synthetic main immunogenic region (MIR) peptide) [Mutant K10N, Human 39MIR single mutant (K10N)] | — |

System: mAb 198
Experiment: Western blot of peptide-IChBD fusion proteins probed with mAb 198
Format: binding, rat
Details: FIG. 5 Western blots, Torpedo 39MIR single mutants
Text: as §3, §1
The Torpedo (SEQ ID NO:9) and human (SEQ ID NO:8) 39MIRs were made by joining the α(1-12), α(65-79), and α(110-115) segments of their respective a subunits with GS linkers. These two MIR mimics were expressed in E. coli as fusion proteins with an IChBD tag to permit peptide collection on chitin beads. These two peptides differ from each other by eight amino acids (FIG. 2). Both mimics were probed with mAb 198. mAb 198, which was derived from rats that had been immunized with human muscle AChR, is a MIR-directed mAb that binds mammalian as well as Torpedo MIR (13,21). It was also able to passively transfer EAMG to rats and binds to both native assembled AChR and to α-subunit fragments in Western blots (22,23). mAb 198 binds to the Torpedo and human MIR peptide mimics in Western blots (FIG. 3). However, mAb 198 binds to the Torpedo mimic about 50 times more strongly than to the human MIR mimic (FIG. 3).
as §2

| Sequence | mAb 198 binding relative to Torpedo 39MIR |
| --- | --- |
| SEHETRLVANLLGGGSLRWNPADYGGVKKIRGSLDYTGK (synthetic main immunogenic region (MIR) peptide) [Mutant I75V, Torpedo 39MIR single mutant (I75V)] | 0.16 × |

Same assay, conditions: Table 1, Western blot of FIG. 5, Torpedo 39MIR single mutants

| Sequence | mAb 198, fold-change in binding relative to Torpedo 39MIR |
| --- | --- |
| SEHETRLVANLLGGGSLRWNPADYGGVKKIRGSLDYTGK (synthetic main immunogenic region (MIR) peptide) [Mutant I75V, Torpedo 39MIR single mutant (I75V)] | 0.16 fold-change |
| SEHETRLVANLLGGGSLRWNPDDYGGIKKIRGSLDYTGK (synthetic main immunogenic region (MIR) peptide) [Mutant A70D, Torpedo 39MIR single mutant (A70D)] | 1.08 fold-change |

Same assay, conditions: Table 3, single-substitution human 39MIR mutants

| Sequence | mAb 198, fold-change in binding relative to Torpedo 39MIR |
| --- | --- |
| SEHETRLVAKLFGGGSLKWNPADYGGVKKIHGSLQYTGH (synthetic main immunogenic region (MIR) peptide) [Mutant D70A, Human 39MIR single mutant (D70A)] | 0.02 fold-change |
| SEHETRLVAKLFGGGSLKWNPDDYGGIKKIHGSLQYTGH (synthetic main immunogenic region (MIR) peptide) [Mutant V75I, Human 39MIR single mutant (V75I)] | 0.65 fold-change |
| SEHETRLVAKLFGGGSLKWNPDDYGGVKKIHGSLDYTGH [Q111D] (synthetic main immunogenic region (MIR) peptide) [Mutant Q111D, Human 39MIR single mutant (Q111D)] | 0.59 fold-change |
| SEHETRLVANLFGGGSLKWNPDDYGGVKKIHGSLQYTGH (synthetic main immunogenic region (MIR) peptide) [Mutant K10N, Human 39MIR single mutant (K10N)] | 0.23 fold-change |

Same assay, conditions: Western blot

| Sequence | mAb 198 binding, result in words |
| --- | --- |
| SEHETRLVAKLFGGGSLKWNPADYGGVKKIHGSLQYTGH (synthetic main immunogenic region (MIR) peptide) [Mutant D70A, Human 39MIR single mutant (D70A)] | comparable to binding to human 39MIR |

Same assay, conditions: human 39MIR mutants, relative to human 39MIR

| Sequence | mAb 198 binding compared to its binding to the human 39MIR |
| --- | --- |
| SEHETRLVAKLFGGGSLKWNPDDYGGIKKIHGSLQYTGH (synthetic main immunogenic region (MIR) peptide) [Mutant V75I, Human 39MIR single mutant (V75I)] | 40 × |
| SEHETRLVAKLFGGGSLKWNPDDYGGVKKIHGSLDYTGH [Q111D] (synthetic main immunogenic region (MIR) peptide) [Mutant Q111D, Human 39MIR single mutant (Q111D)] | 35.7 × |
| SEHETRLVANLFGGGSLKWNPDDYGGVKKIHGSLQYTGH (synthetic main immunogenic region (MIR) peptide) [Mutant K10N, Human 39MIR single mutant (K10N)] | 13 × |

System: mAb 35
Experiment: Western blot of peptide-IChBD fusion proteins probed with mAb 35
Format: binding, rat
Set-up: key to mAb 35, fold-change in binding relative to Torpedo 39MIR: ‘—’ denotes no binding
Details: Table 3, single-substitution human 39MIR mutants

| Sequence | mAb 35, fold-change in binding relative to Torpedo 39MIR |
| --- | --- |
| SEHETRLVAKLFGGGSLKWNPADYGGVKKIHGSLQYTGH (synthetic main immunogenic region (MIR) peptide) [Mutant D70A, Human 39MIR single mutant (D70A)] | — |
| SEHETRLVAKLFGGGSLKWNPDDYGGIKKIHGSLQYTGH (synthetic main immunogenic region (MIR) peptide) [Mutant V75I, Human 39MIR single mutant (V75I)] | 0.03 fold-change |
| SEHETRLVAKLFGGGSLKWNPDDYGGVKKIHGSLDYTGH [Q111D] (synthetic main immunogenic region (MIR) peptide) [Mutant Q111D, Human 39MIR single mutant (Q111D)] | 0.06 fold-change |
| SEHETRLVANLFGGGSLKWNPDDYGGVKKIHGSLQYTGH (synthetic main immunogenic region (MIR) peptide) [Mutant K10N, Human 39MIR single mutant (K10N)] | 0.01 fold-change |

Same assay, conditions: single point mutated human 39MIR peptides

| Sequence | mAb 35 binding compared to the Torpedo 39MIR peptide |
| --- | --- |
| SEHETRLVAKLFGGGSLKWNPDDYGGIKKIHGSLQYTGH (synthetic main immunogenic region (MIR) peptide) [Mutant V75I, Human 39MIR single mutant (V75I)] | 0.03 |
| SEHETRLVAKLFGGGSLKWNPDDYGGVKKIHGSLDYTGH [Q111D] (synthetic main immunogenic region (MIR) peptide) [Mutant Q111D, Human 39MIR single mutant (Q111D)] | 0.06 |
| SEHETRLVANLFGGGSLKWNPDDYGGVKKIHGSLQYTGH (synthetic main immunogenic region (MIR) peptide) [Mutant K10N, Human 39MIR single mutant (K10N)] | 0.01 |

System: mAb 132A
Experiment: Western blot of peptide-IChBD fusion proteins probed with mAb 132A
Format: binding, rat
Details: FIG. 5 Western blots, Torpedo 39MIR single mutants
Description: as §3, §1, §2

| Sequence | mAb 132A binding relative to binding to the Torpedo 39MIR |
| --- | --- |
| SEHETRLVANLLGGGSLRWNPADYGGVKKIRGSLDYTGK (synthetic main immunogenic region (MIR) peptide) [Mutant I75V, Torpedo 39MIR single mutant (I75V)] | 0.07 × |
| SEHETRLVANLLGGGSLRWNPDDYGGIKKIRGSLDYTGK (synthetic main immunogenic region (MIR) peptide) [Mutant A70D, Torpedo 39MIR single mutant (A70D)] | 0.20 × |

Same assay, conditions: Table 1, Western blot of FIG. 5, Torpedo 39MIR single mutants

| Sequence | mAb 132A, fold-change in binding relative to Torpedo 39MIR |
| --- | --- |
| SEHETRLVANLLGGGSLRWNPADYGGVKKIRGSLDYTGK (synthetic main immunogenic region (MIR) peptide) [Mutant I75V, Torpedo 39MIR single mutant (I75V)] | 0.06 fold-change |
| SEHETRLVANLLGGGSLRWNPDDYGGIKKIRGSLDYTGK (synthetic main immunogenic region (MIR) peptide) [Mutant A70D, Torpedo 39MIR single mutant (A70D)] | 0.20 fold-change |

Same assay, conditions: Western blot

| Sequence | mAb 132A binding, result in words |
| --- | --- |
| SEHETRLVAKLFGGGSLKWNPDDYGGVKKIHGSLDYTGH [rat 39 MIR] (synthetic main immunogenic region (MIR) peptide) [Mouse 39MIR; rat/mouse 39MIR homolog] | did not bind |
